The text below walks through data of patent EP2600854B1, “PHENETHYL, PHENETHYLENE, PHENETHYNE AND INDANONE DERIVATES IN COSMETIC FORMULATIONS, ESPECIALLY FOR USE IN SKIN AGEING PROCESSES” (Merck Patent GmbH, priority 2010, dated 2012).

The nature of data set [1]: In-situ generation of 4a from 1a under sun-simulated radiation (Suntester), HPLC analysis. The settings on record: 5mg 1a in 10 mL Ethanol. It is filed as physicochemical. As to the method:
5mg der Substanz 1 a werden in 10 mL Ethanol gelöst. Mit der Lösung wird ein NMR-Röhrchen vollständig befüllt, verschlossen und für 4 Stunden im Suntester sonnensimulierter Strahlung ausgesetzt (Atlas CPS+ Suntester, 765 Wm^-2). Nach Bestrahlung wird die Lösung per HPLC untersucht. Im Dunkelexperiment ist die Substanz 4a abwesend, während im Belichtungexperiment Substanz 4a zu 2% bei der Detektionswellenlänge von 272nm nachgewiesen wird.

The nature of data set [2]: Solubility comparison in the cosmetic oil isopropyl myristate. It is filed as physicochemical. Particulars: for solubility: isopropyl myristate, organic solvent or mixture, Isopropylmyristat, read-out: Löslichkeiten. The protocol: Im Parallelversuch werden 20mg der Substanz 4a mit zunächst 800µL Isopropylmyristat versetzt. […] Daraus errechnen sich Löslichkeiten für 1 a von mindestens 2,5% bzw. für 4a von maximal 1,0% bezogen auf das eingesetzte Volumen Öl. Im anschließenden Verifizierungsexperiment bei Raumtemperatur von 23°C ergeben sich Löslichkeiten von 2,4% für 1 a sowie 0,4% für 4a.

Setting [3] is: 30°C, bezogen auf das eingesetzte Volumen Öl, calculated from 20mg in 800µL (1a) or 800µL + 1200µL (4a).
Where [4] appears, read: Verifizierungsexperiment bei Raumtemperatur von 23°C.

≈ marks a conversion by molar mass, not a printed value. Read-outs that look alike come from different tables or passages of the source.

Turning to `COc1ccc(C(=O)/C=C/c2ccc(C(C)(C)C)cc2)cc1` [1a, E-3-(4-tert.-Butyl-phenyl)-1-(4-methoxy-phenyl)-propenon], the “Substanz 4a nachgewiesen (HPLC) im Belichtungexperiment” value in data set [1] (4 Stunden sonnensimulierte Strahlung (Atlas CPS+ Suntester, 765 Wm^-2), Detektionswellenlänge 272nm) was 2%. Moreover, in data set [1] (no irradiation), the “Substanz 4a (HPLC) im Dunkelexperiment” value is recorded as “abwesend”. The “Dissolution of 20mg in 800µL Isopropylmyristat” value in data set [2] (20mg, 30°C) was “vollständig gelöst”. Also, the solubility in data set [2] (setting [3]) was at least 25 mg/mL; in data set [2] (setting [4]), 24 mg/mL (≈ 81.5 mM).

For the compound `COc1ccc2c(c1)C(c1ccc(C(C)(C)C)cc1)CC2=O` (stereo not drawn) [4a, 3-(4-tert.-Butyl-phenyl)-5-methoxy-indan-1-on], the “Dissolution of 20mg after addition of further 1200µL Isopropylmyristat” value in data set [2] (20mg, 800µL + 1200µL Isopropylmyristat) is given as “deutlicher Bodensatz in der trüben Dispersion”. For the same compound, in data set [2] (20mg, 30°C), the “Dissolution of 20mg in 800µL Isopropylmyristat” value is listed as “keine vollständige Löslichkeit”. The solubility was at most 10 mg/mL in data set [2] (setting [3]) and 4 mg/mL (≈ 13.6 mM) in data set [2] (setting [4]).
